{"source": "patent US20070196510A1", "about": "“Method for treating resistant hypertension” (priority 2006, published 2007)", "key": {"[1]": {"system": "patients with resistant hypertension", "assay": "Randomized, double-blind, placebo-controlled dose-titration study: sitting blood pressure by standard sphygmomanometry", "type": "in vivo, human", "conditions": "for patients achieving SBP goal, % / patients achieving SBP goal, responders n: n = 76; for placebo-corrected change from baseline in trough sitting SBP: post-hoc", "procedure": "In this randomized, double-blind, placebo-controlled, dose-titration study, 115 patients with resistant hypertension as defined by JNC 7 guidelines were randomized 2:1 to receive escalating doses of darusentan (10, 50, 100, 150 and 300 mg) or placebo once daily for 10 weeks. Darusentan dose was increased every 2 weeks.\nPatients (35 to 85 years of age) with resistant hypertension as defined by the JNC 7 guidelines and who were treated with and adhered to full doses of JNC 7 recommended antihypertensives, including a diuretic and two or more antihypertensive medications from different drug classes, defined as (a) ACE inhibitors and angiotensin II receptor blockers, (b) beta-adrenergic receptor blockers, and (c) calcium channel blockers, were eligible to participate in the study. Patients also were required to have an estimated glomerular filtration rate (GFR)≧30 mL/min/1.73 m^2 during the screening period. Women of childbearing potential were required to have a negative serum pregnancy test at the screening visit and a negative urine pregnancy test at baseline, and they must have agreed to use a reliable double-barrier method of contraception throughout the study and for at least 4 weeks after the last study visit. Patients with an average sitting SBP≧180 mmHg, DBP≧110 mmHg, hemoglobin A1c>10%, hemoglobin concentration<10 g/dL, hematocrit<30%, serum thyroid stimulating hormone concentration>1.5× the upper limit of normal (ULN), or serum alanine aminotransferase (ALT) or aspartate aminotransferase (AST)>2×ULN during the screening period were excluded from the study. […] All patients provided written informed consent.\nIn this randomized, double-blind, placebo-controlled, dose-titration study, patients were randomized 2:1 to receive escalating doses of darusentan or placebo once daily in the morning for 10 weeks after completing a 2-week placebo run-in period (FIG. 1). Darusentan was initiated at a dose of 10 mg/day and escalated every 2 weeks at doses of 50, 100 and 150 mg/day until reaching a maximum of 300 mg/day. […] Patients were withdrawn from the study if a subsequent dose reduction was required. After completion of the 10-week treatment period, patients were withdrawn from study medication over a maximum of 2 weeks. This study was approved by an Institutional Review Board/Independent Ethics Committee and conducted in accordance with the principles of Good Clinical Practices and the revised Declaration of Helsinki.\n(§1) Co-primary efficacy endpoints were the changes from baseline through weeks 8 and 10 (i.e., doses of 150 and 300 mg) in trough sitting SBP. Blood pressure was measured at every study visit (baseline and weeks 2, 4, 6, 8 and 10) using standard sphygmomanometry. Secondary variables included 24-hour SBP as measured by ambulatory blood pressure monitoring (ABPM), percentage of patients who achieved SBP goal, trough sitting DBP, and urinary albumin to creatinine ratio. Ambulatory blood pressure monitoring was recorded once before randomization and repeated during the 24 hours immediately preceding the week 10 study visit. Urine samples for determination of albumin to creatinine ratio were collected at screening, baseline and week 10.\nA nonlinear mixed effect model was used for the analysis of change in blood pressure, with comorbidity status as a covariate. This model used all observed blood pressure measurements with no imputation for missing values. Linear contrast statements were used to test the slope through a given time point to test the effect of the dose administered on that week. Estimates of treatment effect were obtained via least square means. Response rates were compared with logistic regression models at each blood pressure measurement with comorbidity status as a covariate; missing values were imputed with last observation carried forward for these models. Safety summaries include all patients who received ≧1 dose of blinded study medication. […]"}, "[2]": {"system": "patients with resistant hypertension", "assay": "Same clinical study: 24-hour ambulatory blood pressure monitoring (ABPM)", "type": "in vivo, human", "procedure": "as §1\nA nonlinear mixed effect model was used for the analysis of change in blood pressure, with comorbidity status as a covariate. This model used all observed blood pressure measurements with no imputation for missing values. Linear contrast statements were used to test the slope through a given time point to test the effect of the dose administered on that week. Estimates of treatment effect were obtained via least square means. Response rates were compared with logistic regression models at each blood pressure measurement with comorbidity status as a covariate; missing values were imputed with last observation carried forward for these models. Safety summaries include all patients who received ≧1 dose of blinded study medication.\nIn this randomized, double-blind, multi-center study, subjects underwent a 2-week placebo run-in, followed by 2:1 randomization to darusentan or placebo once daily for 10 weeks. Subjects were initiated on 10 mg of study drug and underwent dose-escalation every 2 weeks through doses of 50, 100 and 150 mg until a maximum dose of 300 mg was achieved. Change from baseline to week 10 in 24-hour ambulatory blood pressure (ABP) was a secondary efficacy endpoint. All available ABP data were included in the analyses (observed population)."}, "[3]": {"system": "patients with resistant hypertension", "assay": "Same clinical study: urinary albumin to creatinine ratio", "type": "in vivo, human", "procedure": "as §1"}, "[4]": {"system": "patients with moderate hypertension", "conditions": "10 to 100 mg/day, no other antihypertensive drugs; cited from earlier work"}}, "note": "“And” between values parts separate entries of the source, which are not always exact repeats. Equal entries are not always repeated. “Also recorded” adds a separate entry of the source."}
{"smiles": "COc1cc(OC)nc(O[C@H](C(=O)O)C(OC)(c2ccccc2)c2ccccc2)n1", "note": "[Darusentan, (+)-(S)-2-[(4,6-dimethoxy-2-pyrimidinyl)oxy]-3-methoxy-3,3-diphenylpropionic acid]", "values": [{"measurement": "sitting and standing blood pressure during withdrawal", "setting": "[1]; 2-week withdrawal period after week 10, no significant difference vs placebo", "result": "increased"}, {"measurement": "dose dependence of improvements in trough sitting SBP and DBP", "setting": "[1]; 10 to 300 mg once daily, escalated every 2 weeks", "result": "dose dependent"}, {"measurement": "reduction in peak sitting DBP", "setting": "[1]; by week 10", "result": 8.2, "unit": "mmHg"}, {"measurement": "reduction in peak sitting SBP", "setting": "[1]; by week 10, placebo 9.9", "result": 17.1, "unit": "mmHg"}, {"measurement": "average trough sitting DBP at end of treatment", "setting": "[1]; study end (week 10), baseline 80.6", "result": 73.9, "unit": "mmHg"}, {"measurement": "average trough sitting SBP at end of treatment", "setting": "[1]; study end (week 10), baseline 146.3", "result": 132.6, "unit": "mmHg"}, {"measurement": "patients achieving SBP goal, %", "setting": "[1]; week 2 (10 mg)", "result": 30.3, "unit": "%"}, {"measurement": "patients achieving SBP goal, responders n", "setting": "[1]; week 2 (10 mg)", "result": 23}, {"measurement": "placebo-adjusted mean trough sitting DBP, change from baseline", "setting": "[1]; week 4 (50 mg dose)", "result": "−4.9", "unit": "mmHg"}, {"measurement": "patients achieving SBP goal, %", "setting": "[1]; week 4 (50 mg)", "result": 47.4, "unit": "%"}, {"measurement": "patients achieving SBP goal, responders n", "setting": "[1]; week 4 (50 mg)", "result": 36}, {"measurement": "patients achieving SBP goal, %", "setting": "[1]; week 6 (100 mg)", "result": 44.7, "unit": "%"}, {"measurement": "patients achieving SBP goal, responders n", "setting": "[1]; week 6 (100 mg)", "result": 34}, {"measurement": "change from baseline in mean trough sitting SBP, difference between groups", "setting": "[1]; week 8 (150 mg dose), vs placebo", "result": "not statistically significant"}, {"measurement": "patients achieving SBP goal, %", "setting": "[1]; week 8 (150 mg)", "result": 42.1, "unit": "%"}, {"measurement": "patients achieving SBP goal, responders n", "setting": "[1]; week 8 (150 mg)", "result": 32}, {"measurement": "placebo-adjusted mean trough sitting DBP, change from baseline", "setting": "[1]; week 10 (300 mg dose), add-on therapy", "result": "−5.8 mmHg and −5.8±2.3 mmHg"}, {"measurement": "placebo-adjusted mean trough sitting SBP, change from baseline", "setting": "[1]; week 10 (300 mg dose), oral once daily, add-on to >=3 full-dose antihypertensives incl. diuretic", "result": "−11.6 mmHg and −11.6±3.3 mmHg"}, {"measurement": "patients achieving SBP goal, %", "setting": "[1]; week 10 (300 mg), JNC 7 goal", "result": "49% and 48.7%"}, {"measurement": "patients achieving SBP goal, responders n", "setting": "[1]; week 10 (300 mg)", "result": 37}, {"measurement": "placebo-corrected change from baseline in trough sitting SBP", "setting": "[1]; week 10 (300 mg), subjects on >=4 antihypertensive drugs", "result": "−12.71", "unit": "mmHg"}, {"measurement": "placebo-corrected change from baseline in trough sitting SBP", "setting": "[1]; week 10 (300 mg), subjects on exactly 3 antihypertensive drugs", "result": "−9.39", "unit": "mmHg"}, {"measurement": "subjects with decrease in SBP of at least 20 mmHg", "setting": "[1]; week 10, post-hoc, placebo 26%", "result": "about 46%"}, {"measurement": "subjects with change from baseline of at least 10 mmHg for SBP", "setting": "[1]; week 10, post-hoc, placebo 46%", "result": "approximately 64%"}, {"measurement": "subjects achieving SBP goal or a decrease in SBP of at least 10 mmHg", "setting": "[1]; week 10, post-hoc, placebo 49%", "result": 71, "unit": "%"}, {"measurement": "subjects achieving SBP goal or a decrease in SBP of at least 10 mmHg", "setting": "[1]; week 10, subjects on >=4 antihypertensive drugs, placebo 38%", "result": 66, "unit": "%"}, {"measurement": "subjects achieving SBP goal or a decrease in SBP of at least 10 mmHg", "setting": "[1]; week 10, subjects on exactly 3 antihypertensive drugs, placebo 57%", "result": 76, "unit": "%"}, {"measurement": "placebo-adjusted reduction in mean 24-hour diastolic ABP", "setting": "[2]; 300 mg, week 10", "result": "7.2±1.6", "unit": "mmHg"}, {"measurement": "placebo-adjusted 24-hour ambulatory DBP, change from baseline", "setting": "[2]; ABPM at week 10", "result": "−7.2 mmHg and −7.2±1.6 mmHg"}, {"measurement": "placebo-adjusted 24-hour ambulatory SBP, change from baseline", "setting": "[2]; ABPM at week 10", "result": "−9.2 mmHg and −9.2±2.2 mmHg"}, {"measurement": "blood pressure reduction over the 24-hour monitoring period", "setting": "[2]; ABPM week 10, once daily dosing", "result": "maintained throughout the 24-hour monitoring period; also recorded: maintained over 24 hours; also recorded: remained consistently lower throughout the dosing interval"}, {"measurement": "improvement in placebo-adjusted diurnal SBP", "setting": "[2]; after 10 weeks, post-hoc analysis", "result": 8.7, "unit": "mmHg"}, {"measurement": "placebo-adjusted change from baseline in mean ABPM-determined nocturnal DBP", "setting": "[2]; week 10", "result": "−5.9", "unit": "mm Hg"}, {"measurement": "placebo-adjusted change from baseline in mean ABPM-determined nocturnal SBP", "setting": "[2]; week 10", "result": "−9.9", "unit": "mm Hg"}, {"measurement": "decrease in day-time SBP", "setting": "[2]; week 10, placebo 2.2±2.4", "result": "10.9±1.4", "unit": "mmHg"}, {"measurement": "improvement in peak DBP as recorded by ABPM", "setting": "[2]; week 10, placebo 2.3", "result": 9.2, "unit": "mmHg"}, {"measurement": "decrease in night-time SBP", "setting": "[2]; week 10, placebo 3.8±2.7", "result": "11.9±1.6", "unit": "mmHg"}, {"measurement": "improvement in peak SBP as recorded by ABPM", "setting": "[2]; week 10, placebo 6.0", "result": 14.1, "unit": "mmHg"}, {"measurement": "Day/night SBP ratio", "setting": "[2]; week 10, placebo 6.8%", "result": 9.5, "unit": "%"}, {"measurement": "geometric mean albumin to creatinine ratio at week 10", "setting": "[3]; all observed patients, n 65, baseline 12.6", "result": 9.4, "unit": "mg/g"}, {"measurement": "decrease from baseline in geometric mean urinary albumin to creatinine ratio", "setting": "[3]; all observed patients, placebo increased 6.2%", "result": 25.3, "unit": "%"}, {"measurement": "geometric mean albumin to creatinine ratio at week 10", "setting": "[3]; baseline ratio >30 mg/g, n 12, baseline 145.4", "result": 73.6, "unit": "mg/g"}, {"measurement": "geometric mean albumin to creatinine ratio at week 10", "setting": "[3]; baseline ratio ≦30 mg/g, n 53, baseline 7.2", "result": 5.9, "unit": "mg/g"}, {"measurement": "albumin to creatinine ratio, % change from baseline, mean (SE)", "setting": "[3]; week 10, all observed patients, n 65", "result": "−25.3 (8.9) %"}, {"measurement": "albumin to creatinine ratio, % change from baseline, mean (SE)", "setting": "[3]; week 10, baseline ratio >30 mg/g, n 12", "result": "−49.4 (23.6) %"}, {"measurement": "albumin to creatinine ratio, % change from baseline, mean (SE)", "setting": "[3]; week 10, baseline ratio ≦30 mg/g, n 53", "result": "−18.4 (8.3) %"}, {"measurement": "effect on SBP and DBP by comparison with placebo", "setting": "[4]", "result": "significantly reduce SBP and DBP"}]}
